We go through five compounds from patent US9302999B2, “Substituted triazoles as herbicides” (E. I. DU PONT DE NEMOURS AND COMPANY, priority 2012, dated 2016).

Assay type in all cases: in vivo
The subject of experiment [1] is johnsongrass (Sorghum halepense). Briefly: Test E pre-/postemergence: johnsongrass. To be noted: Preemergence, scale 0 to 100. The source says:
(§1) Seeds of plant species selected from corn (Zea mays), soybean (Glycine max), velvetleaf (Abutilon theophrasti), lambsquarters (Chenopodium album), poinsettia, wild (wild poinsettia, Euphorbia heterophylla), pigweed, palmer (palmer pigweed, Amaranthus palmeri), waterhemp (common waterhemp, Amaranthus rudis), smartweed (ladysthumb smartweed, Polygonum persicaria), surinam grass (Brachiaria decumbens), crabgrass, large (large crabgrass, Digitaria sanguinalis), crabgrass, Brazil (Brazilian crabgrass, Digitaria horizontalis), panicum, fall (fall panicum, Panicum dichotomiflorum), foxtail, giant (giant foxtail, Setaria faberii), foxtail, green (green foxtail, Setaria viridis), goosegrass (Eleusine indica), johnsongrass (Sorghum halepense), ragweed (common ragweed, Ambrosia elation), barnyardgrass (Echinochloa crus-galli), sandbur (southern sandbur, Cenchrus echinatus), arrowleaf sida (Sida rhombifolia), ryegrass, Italian (Italian ryegrass, Lolium multiflorum), dayflower, (VA) (Virginia dayflower, Commelina virginica), field bindweed (Convolvulus arvensis), cocklebur (common cocklebur, Xanthium strumarium), morningglory (Ipomoea coccinea), nightshade (eastern black nightshade, Solanum ptycanthum), kochia (Kochia scoparia), nutsedge, yellow (yellow nutsedge, Cyperus esculentus) and beggarticks (hairy beggarticks, Bidens pilosa) were planted into a silt loam soil and treated preemergence with test chemicals formulated in a non-phytotoxic solvent mixture which included a surfactant. At the same time, plants selected from these crop and weed species were planted in pots containing a growing medium comprising spaghnum peat moss, vermiculite, wetting agent and starter nutrients and treated with postemergence applications of some of the test chemicals formulated in the same manner. Plants ranged in height from 2 to 18 cm for postemergence treatments (1- to 4-leaf stage).
(§2) Treated plants and controls were maintained in a greenhouse for 14 to 21 days, after which time all species were compared to controls and visually evaluated. Plant response ratings, summarized in Table E, are based on a scale of 0 to 100 where 0 is no effect and 100 is complete control. A dash (-) response means no test result.

Experiment [2] relates to lambsquarters (Chenopodium album). Briefly: Test E pre-/postemergence: lambsquarters. To be noted: Preemergence, scale 0 to 100.
Description: as §1, §2

Experiment [3] has as its system crabgrass, Brazil (Brazilian crabgrass, Digitaria horizontalis). Briefly: Test E pre-/postemergence: crabgrass, Brazil. The note with it: Preemergence, scale 0 to 100.
Description: as §1, §2

In experiment [4] the test system is nightshade (eastern black nightshade, Solanum ptycanthum). Briefly: Test E pre-/postemergence: nightshade. To be noted: Preemergence, scale 0 to 100.
Description: as §1, §2

The test system of experiment [5] is panicum, fall (fall panicum, Panicum dichotomiflorum). Briefly: Test E pre-/postemergence: panicum, fall. The note with it: Preemergence, scale 0 to 100.
Description: as §1, §2

A further experiment concerns kochia (Kochia scoparia). Briefly: Test E pre-/postemergence: kochia. The note with it: Preemergence, scale 0 to 100.
Description: as §1, §2

Experiment [6] concerns goosegrass (Eleusine indica). Briefly: Test E pre-/postemergence: goosegrass. The note with it: Preemergence, scale 0 to 100.
Description: as §1, §2

Experiment [7] deals with crabgrass, large (large crabgrass, Digitaria sanguinalis). Briefly: Test E pre-/postemergence: crabgrass, large. The note with it: Preemergence, scale 0 to 100.
Description: as §1, §2

Experiment [8] concerns poinsettia, wild (wild poinsettia, Euphorbia heterophylla). Briefly: Test E pre-/postemergence: poinsettia, wild. The note with it: Preemergence, scale 0 to 100.
Description: as §1, §2

For experiment [9], the system named is waterhemp_RES2 (ALS/HPPD resistant common waterhemp, Amaranthus rudis). Briefly: Test F postemergence: waterhemp_RES2. The note with it: scale 0 to 100.
Description: Seeds of plant species selected from corn (Zea mays), soybean (Glycine max), velvetleaf (Abutilon theophrasti), lambsquarters (Chenopodium album), poinsettia, wild (wild poinsettia, Euphorbia heterophylla), pigweed, palmer (palmer pigweed, Amaranthus palmeri), waterhemp (common waterhemp, Amaranthus rudis), surinam grass (Brachiaria decumbens), crabgrass, Brazil (Brazilian crabgrass, Digitaria horizontalis), panicum, fall (fall panicum Panicum dichotomiflorum), crabgrass, large (large crabgrass, Digitaria sanguinalis), foxtail, giant (giant foxtail, Setaria faberii), foxtail, green (green foxtail Setaria viridis), goosegrass (Eleusine indica), ragweed (common ragweed, Ambrosia elatior), barnyardgrass (Echinochloa crus-galli), sandbur (southern sandbur, Cenchrus echinatus), arrowleaf sida (Sida rhombifolia), ryegrass, Italian (Italian ryegrass, Lolium multiflorum), dayflower, VA (Virginia (VA) dayflower, Commelina virginica), field bindweed (Convolvulus arvensis), cocklebur (common cocklebur, Xanthium strumarium), morningglory (Ipomoea coccinea), nightshade (eastern black nightshade, Solanum ptycanthum), kochia (Kochia scoparia), nutsedge, yellow (yellow nutsedge, Cyperus esculentus), johnsongrass (Sorghum halepense), smartweed (ladysthumb smartweed, Polygonum persicaria), and beggarticks (hairy beggarticks, Bidens pilosa), were planted into a silt loam soil and treated preemergence with test chemicals formulated in a non-phytotoxic solvent mixture which included a surfactant. At the same time, plants selected from these crop and weed species and also pigweed (Amaranthus retroflexus), waterhemp_RES1 (ALS/Triazine resistant common waterhemp, Amaranthus rudis) and waterhemp_RES2 (ALS/HPPD resistant common waterhemp, Amaranthus rudis) were planted in pots containing a planting medium comprising spaghnum peat moss, vermiculite, wetting agent and starter nutrients treated with postemergence applications of some of the test chemicals formulated in the same manner. Plants ranged in height from 2 to 18 cm for postemergence treatments (1- to 4-leaf stage).
as §2

Experiment [10] relates to beggarticks (hairy beggarticks, Bidens pilosa). Briefly: Test E pre-/postemergence: beggarticks. To be noted: Preemergence, scale 0 to 100.
Description: as §1, §2

Experiment [11] has as its system smartweed (ladysthumb smartweed, Polygonum persicaria). Briefly: Test E pre-/postemergence: smartweed. To be noted: Preemergence, scale 0 to 100.
Description: as §1, §2

Molecules are shown by their SMILES.

For `Cc1nn(-c2ccc(C(F)(F)F)cn2)nc1Oc1ccnc(C(F)(F)F)c1` [Compound 23], the “Plant response rating: Johnsongrass” value is reported as 0 in experiment [1] (16 g ai/ha); 0 in experiment [1] (31 g ai/ha); 0 in experiment [1] (62 g ai/ha); 20 in experiment [1] (125 g ai/ha); 60 in [1] (250 g ai/ha). The “Plant response rating: Lambsquarters” value turned out to be 0 in [2] (31 g ai/ha), 0 in experiment [2] (62 g ai/ha), 98 in [2] (125 g ai/ha) and 98 in [2] (250 g ai/ha). Further, the “Plant response rating: Crabgrass, Brazil” value in [3] (16 g ai/ha) came to 0; in [3] (31 g ai/ha), 0; in experiment [3] (62 g ai/ha), 65; in [3] (125 g ai/ha) it was 65; in experiment [3] (250 g ai/ha), 85. Further, the “Plant response rating: Nightshade” value in experiment [4] (16 g ai/ha) is listed as 0; in [4] (31 g ai/ha), 0; in experiment [4] (62 g ai/ha) it was 0; in experiment [4] (125 g ai/ha), 95; in [4] (250 g ai/ha) it was 98. Besides, the “Plant response rating: Panicum, Fall” value in experiment [5] (16 g ai/ha) came out at 0; in experiment [5] (31 g ai/ha) it was 15; in experiment [5] (62 g ai/ha) it was 80; in [5] (125 g ai/ha), 100; in [5] (250 g ai/ha), 100. Further, the “Plant response rating: Kochia” value in the experiment with kochia (Kochia scoparia) (16 g ai/ha) was found to be 0; in the experiment with kochia (Kochia scoparia) (31 g ai/ha), 0; with kochia (Kochia scoparia) (62 g ai/ha), 60; in the experiment with kochia (Kochia scoparia) (125 g ai/ha), 100; with kochia (Kochia scoparia) (250 g ai/ha) it was 100. The “Plant response rating: Goosegrass” value in [6] (16 g ai/ha) turned out to be 0; in experiment [6] (62 g ai/ha) it was 20; in experiment [6] (125 g ai/ha) it was 35; in [6] (250 g ai/ha) it was 60. For the same compound, the “Plant response rating: Crabgrass, Large” value in [7] (16 g ai/ha) is listed as 5; in [7] (31 g ai/ha), 5; in experiment [7] (62 g ai/ha) it was 35; in [7] (125 g ai/ha) it was 70; in experiment [7] (250 g ai/ha), 100. Further, the “Plant response rating: Poinsettia, Wild” value was 0 in [8] (16 g ai/ha); 0 in experiment [8] (31 g ai/ha); 0 in [8] (62 g ai/ha); 35 in experiment [8] (125 g ai/ha); 35 in experiment [8] (250 g ai/ha).
For the compound `Cc1nn(-c2ccnc(Cl)c2)nc1Cc1ccnc(C(F)(F)F)c1` [Compound 141], the “Plant response rating, Waterhemp, Res2” value was 85 in experiment [9] (8 g ai/ha); 95 in [9] (16 g ai/ha); 95 in [9] (31 g ai/ha); 95 in [9] (62 g ai/ha); 100 in experiment [9] (125 g ai/ha).
With `FC(F)(F)COc1nn(-c2ccc(C(F)(F)F)cc2)nc1Cc1ccnc(C(F)(F)F)c1` [Compound 14, 4-[[5-(2,2,2-trifluoroethoxy)-2-[4-(trifluoromethyl)phenyl]-2H-1,2,3-triazol-4-yl]methyl]-2-(trifluoromethyl)pyridine], the “Plant response rating: Johnsongrass” value stood at 10 in experiment [1] (16 g ai/ha); 20 in experiment [1] (31 g ai/ha); 70 in experiment [1] (62 g ai/ha); 90 in experiment [1] (125 g ai/ha); 95 in experiment [1] (250 g ai/ha). For the same compound, the “Plant response rating: Lambsquarters” value is 80 in experiment [2] (16 g ai/ha); 98 in experiment [2] (31 g ai/ha); 98 in experiment [2] (62 g ai/ha); 98 in experiment [2] (125 g ai/ha); 98 in [2] (250 g ai/ha). The “Plant response rating: Crabgrass, Brazil” value is 60 in [3] (16 g ai/ha); 75 in experiment [3] (31 g ai/ha); 100 in [3] (62 g ai/ha); 100 in experiment [3] (125 g ai/ha); 100 in experiment [3] (250 g ai/ha). Besides, the “Plant response rating: Nightshade” value amounted to 35 in [4] (16 g ai/ha); 60 in [4] (31 g ai/ha); 98 in experiment [4] (62 g ai/ha); 98 in [4] (125 g ai/ha); 98 in [4] (250 g ai/ha). For the same compound, the “Plant response rating: Beggarticks” value in experiment [10] (16 g ai/ha) amounted to 5; in [10] (31 g ai/ha) it was 50; in experiment [10] (62 g ai/ha), 90; in experiment [10] (125 g ai/ha), 98; in experiment [10] (250 g ai/ha), 100. Moreover, the “Plant response rating: Panicum, Fall” value in [5] (16 g ai/ha) was 65; in experiment [5] (31 g ai/ha), 80; in [5] (62 g ai/ha), 100; in [5] (125 g ai/ha), 100; in experiment [5] (250 g ai/ha), 100. Moreover, the “Plant response rating: Smartweed” value in [11] (31 g ai/ha) came out at 25; in experiment [11] (62 g ai/ha) it was 80; in [11] (250 g ai/ha), 80. Moreover, the “Plant response rating: Kochia” value with kochia (Kochia scoparia) (16 g ai/ha) stood at 20; in the experiment on kochia (Kochia scoparia) (31 g ai/ha), 50; in the experiment with kochia (Kochia scoparia) (62 g ai/ha), 90; in the experiment on kochia (Kochia scoparia) (125 g ai/ha), 98; with kochia (Kochia scoparia) (250 g ai/ha) it was 100. For the same compound, the “Plant response rating: Goosegrass” value was 65 in [6] (16 g ai/ha); 100 in experiment [6] (31 g ai/ha); 100 in [6] (62 g ai/ha); 100 in experiment [6] (125 g ai/ha); 100 in experiment [6] (250 g ai/ha). Moreover, the “Plant response rating: Crabgrass, Large” value is 65 in [7] (16 g ai/ha); 75 in experiment [7] (31 g ai/ha); 95 in [7] (62 g ai/ha); 100 in experiment [7] (125 g ai/ha); 100 in [7] (250 g ai/ha). Further, the “Plant response rating: Poinsettia, Wild” value in [8] (16 g ai/ha) was found to be 15; in experiment [8] (31 g ai/ha), 25; in [8] (62 g ai/ha), 50; in [8] (125 g ai/ha), 65; in [8] (250 g ai/ha), 75.
As for `CCOc1nn(-c2ccc(F)cc2)nc1Cc1ccnc(C(F)(F)F)c1` [Compound 196, 4-[[5-ethoxy-2-(4-fluorophenyl)-2H-1,2,3-triazol-4-yl]methyl]-2-(trifluoromethyl)pyridine], the “Plant response rating, Waterhemp, Res2” value turned out to be 90 in experiment [9] (8 g ai/ha); 90 in [9] (16 g ai/ha); 95 in experiment [9] (31 g ai/ha); 95 in [9] (62 g ai/ha); 95 in experiment [9] (125 g ai/ha).
Regarding `CCc1nn(-c2ccc(C(F)(F)F)cc2)nc1Oc1ccnc(C(F)(F)F)c1` [Compound 169], the “Plant response rating, Waterhemp, Res2” value in experiment [9] (16 g ai/ha) stood at 75; in [9] (31 g ai/ha) it was 85; in [9] (62 g ai/ha) it was 95; in experiment [9] (125 g ai/ha) it was 100; in [9] (250 g ai/ha), 100.
